According to patent US20240246905A1 (University of Leicester, priority 2021, published 2024):

Key:
MRSA 252 [1] = assay: MIC, broth micro-dilution; format: cell-based, Staphylococcus aureus; conditions: Staphylococcus aureus, read-out: MIC
Summary of the method: (§1)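 S. aureus cultures grown 18 h in TSB were used to inoculate twofold antibiotic series in TSB at 5×10^5 CFU/mL, per CLSI guidelines. Growth curves read by optical density at 12-min intervals for 18 h at 37 °C were fitted sigmoidally to calculate MIC.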

MSSA 476 [2] = assay: MIC, broth micro-dilution; format: cell-based, Staphylococcus aureus; conditions: Staphylococcus aureus, MSSA, read-out: MIC
Summary of the method: as §1

MRSA 252 [3] = assay: Disc diffusion (Kirby-Bauer), zone of inhibition; format: cell-based, Staphylococcus aureus; conditions: Staphylococcus aureus, 500 μg/mL, '/' = no zone, read-out: Zone of inhibition
Summary of the method: (§2)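 Zones of inhibition recorded after 24 h at 37 °C on Mueller-Hinton agar. Agar was inoculated with 1 in 200 diluted 18 h broth cultures, and discs carried 50 μL of antibiotic. Method follows CLSI 2017 disc diffusion.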

MSSA 476 [4] = assay: Disc diffusion (Kirby-Bauer), zone of inhibition; format: cell-based, Staphylococcus aureus; conditions: Staphylococcus aureus, 500 μg/mL, '/' = no zone, read-out: Zone of inhibition
Summary of the method: as §2

[5] = tested on: Staphylococcus aureus 15981; assay: Disc diffusion (Kirby-Bauer), zone of inhibition; format: cell-based; conditions: Staphylococcus aureus 15981; 500 μg/mL; '/' = no zone; read-out: Zone of inhibition
Summary of the method: as §2

[6] = tested on: various Staphylococcus aureus strains; assay: Disc diffusion, Staphylococcus aureus strain study; format: cell-based; conditions: Staphylococcus aureus, 500 μg/mL
From the text: At this point in the study it was decided to perform a disc diffusion assay study on 50 S. aureus strains. […] Moreover, by employing a range of mutant strains of S. aureus with specific gene-deletions, it was believed that if particular strains were resistant to the lead compounds, it could provide insights on the likely protein target of the lead antibiotics. However, all six of the compounds utilized in this study were able to inhibit growth of all 50 strains of S. aureus assayed at the chosen concentration of 500 μg/mL concentration (Table 5).
E. coli DH5α, P. aeruginosa PA01 and the 53 S. aureus strains were recovered from frozen (−80° C.) glycerol (15% v/v) stocks on Lysogeny agar (LA)—Gram negative and trypticase soy agar (TSA)—plates at 37° C. for 24 hours. Single colonies were placed in either 3 mL Lysogeny broth (LB)—Gram negative or trypticase soy broth (TSB)—Gram positive and incubated at 37° C., 250 rpm for 18 hours.
The antibiotic activity was determined using a Kirby-Bauer method according to Clinical Standard Laboratory Institute (CSLI) Guidelines (2017). Briefly, 180 μL of a 1 in 200 dilution (in LB or TSB) of overnight cultures of selected Gram negative and Gram positive bacteria were applied to an agar plate containing the solid growth medium, Mueller-Hinton agar (MHA). Sterile discs, inoculated with 50 μL of antibiotic, were first added to the agar plate before the plates were incubated for 24 hours at 37° C. Following incubation, the zone of inhibition (if it existed) was recorded.

HEK293 cells = assay: Cytotoxicity assay, resazurin (CO-ADD)
Summary of the method: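 HEK293 cells in DMEM with 10% FBS were exposed to compounds at a single concentration of 32 μg/mL for 20 h at 37° C, 5% CO2. Viability read by resazurin fluorescence (2.3 μg/mL final, 3 h; F560/590). CC50 from sigmoidal dose-response fitting.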

red blood cells = assay: Hemolysis assay (CO-ADD); format: cell-based; conditions: 32 μg/mL highest concentration tested
From the text: A problem often encountered by emerging drugs is hemolysis, also known as drug-induced immune hemolytic anemia.

[C-]#[N+]/C=C/c1ccc(O)cc1/C=C/c1ccccc1 [Compound 36, 4-((E Z)-2-Isocyanovinyl)-3-((E)-styryl)phenol]
22 mm: zone of inhibition at 500 µg/mL ([6]; strain not given)
30 mm: zone of inhibition at 500 µg/mL (MSSA 476 [4]) | zone of inhibition at 500 µg/mL [5] | zone of inhibition at 500 µg/mL ([6]; strain ASARM 80) | zone of inhibition at 500 µg/mL ([6]; strain EOE 3) | zone of inhibition at 500 µg/mL ([6]; strain S295_1_1) | zone of inhibition at 500 µg/mL ([6]; strain S295_1_2) | zone of inhibition at 500 µg/mL ([6]; strain S364_5_11) | zone of inhibition at 500 µg/mL ([6]; strain USFL 018) | zone of inhibition at 500 µg/mL ([6]; strain USFL 020)
>32 µg/mL: Hemolytic activity (HC10) (red blood cells)
29 mm: zone of inhibition at 500 µg/mL ([6]; strain ASARM 61) | zone of inhibition at 500 µg/mL ([6]; strain ASARM 73) | zone of inhibition at 500 µg/mL ([6]; strain ASARM 79) | zone of inhibition at 500 µg/mL ([6]; strain EOE 54) | zone of inhibition at 500 µg/mL ([6]; strain S197_1_1) | zone of inhibition at 500 µg/mL ([6]; strain Sa_TPS 3026) | zone of inhibition at 500 µg/mL ([6]; strain Sa_TPS 3092) | zone of inhibition at 500 µg/mL ([6]; strain USFL 021)
34 mm: zone of inhibition at 500 µg/mL ([6]; strain ASARM 76) | zone of inhibition at 500 µg/mL ([6]; strain ASARM 77) | zone of inhibition at 500 µg/mL ([6]; strain EOE 30) | zone of inhibition at 500 µg/mL ([6]; strain Sa_TPS 3097)
28 mm: zone of inhibition at 500 µg/mL (MRSA 252 [3]) | zone of inhibition at 500 µg/mL ([6]; strain ASARM 70) | zone of inhibition at 500 µg/mL ([6]; strain EOE 41) | zone of inhibition at 500 µg/mL ([6]; strain EOE 45) | zone of inhibition at 500 µg/mL ([6]; strain EOE 52) | zone of inhibition at 500 µg/mL ([6]; strain EOE 57) | zone of inhibition at 500 µg/mL ([6]; strain S197_1_8) | zone of inhibition at 500 µg/mL ([6]; strain S197_1_9) | zone of inhibition at 500 µg/mL ([6]; strain S197_1_10) | zone of inhibition at 500 µg/mL ([6]; strain S364_5_12) | zone of inhibition at 500 µg/mL ([6]; strain Sa_TPS 3072) | zone of inhibition at 500 µg/mL ([6]; strain Sa_TPS 3106) | zone of inhibition at 500 µg/mL ([6]; strain Sa_TPS 3118) | zone of inhibition at 500 µg/mL ([6]; strain Sa_TPS 3133) | zone of inhibition at 500 µg/mL ([6]; strain USFL 009) | zone of inhibition at 500 µg/mL ([6]; strain USFL 012) | zone of inhibition at 500 µg/mL ([6]; strain USFL 028) | zone of inhibition at 500 µg/mL ([6]; strain USFL 035) | zone of inhibition at 500 µg/mL ([6]; strain USFL 054)
15 µg/mL: MIC (MRSA 252 [1])
no toxicity: toxicity towards the HEK293 cell line (in words) (HEK293 cells; set concentration of 32 μg/mL)
32 mm: zone of inhibition at 500 µg/mL ([6]; strain ASARM 75) | zone of inhibition at 500 µg/mL ([6]; strain EOE 23) | zone of inhibition at 500 µg/mL ([6]; strain EOE 35) | zone of inhibition at 500 µg/mL ([6]; strain S295_1_3) | zone of inhibition at 500 µg/mL ([6]; strain Sa_TPS 3103) | zone of inhibition at 500 µg/mL ([6]; strain Sa_TPS 3104) | zone of inhibition at 500 µg/mL ([6]; strain USFL 016)
>32000 ng/mL: Concentration toxic to HEK 293 cells (HEK293 cells; HEK 293)
12 µg/mL: MIC (MSSA 476 [2])
26 mm: zone of inhibition at 500 µg/mL ([6]; strain ASARM 71) | zone of inhibition at 500 µg/mL ([6]; strain ASARM 72) | zone of inhibition at 500 µg/mL ([6]; strain EOE 42) | zone of inhibition at 500 µg/mL ([6]; strain Sa_TPS 3134) | zone of inhibition at 500 µg/mL ([6]; strain USFL 008)
24 mm: zone of inhibition at 500 µg/mL ([6]; strain S139_7_7)
